The target in this experiment is H1047R PIK3CA enzyme (Homo sapiens, UniProt P42336, H1047R). Nature of the experiment: ADP-Glo Biochemical PIK3CA Kinase Assay.
H1047R PIK3CA enzyme, sequence (P42336 whole entry H1047R): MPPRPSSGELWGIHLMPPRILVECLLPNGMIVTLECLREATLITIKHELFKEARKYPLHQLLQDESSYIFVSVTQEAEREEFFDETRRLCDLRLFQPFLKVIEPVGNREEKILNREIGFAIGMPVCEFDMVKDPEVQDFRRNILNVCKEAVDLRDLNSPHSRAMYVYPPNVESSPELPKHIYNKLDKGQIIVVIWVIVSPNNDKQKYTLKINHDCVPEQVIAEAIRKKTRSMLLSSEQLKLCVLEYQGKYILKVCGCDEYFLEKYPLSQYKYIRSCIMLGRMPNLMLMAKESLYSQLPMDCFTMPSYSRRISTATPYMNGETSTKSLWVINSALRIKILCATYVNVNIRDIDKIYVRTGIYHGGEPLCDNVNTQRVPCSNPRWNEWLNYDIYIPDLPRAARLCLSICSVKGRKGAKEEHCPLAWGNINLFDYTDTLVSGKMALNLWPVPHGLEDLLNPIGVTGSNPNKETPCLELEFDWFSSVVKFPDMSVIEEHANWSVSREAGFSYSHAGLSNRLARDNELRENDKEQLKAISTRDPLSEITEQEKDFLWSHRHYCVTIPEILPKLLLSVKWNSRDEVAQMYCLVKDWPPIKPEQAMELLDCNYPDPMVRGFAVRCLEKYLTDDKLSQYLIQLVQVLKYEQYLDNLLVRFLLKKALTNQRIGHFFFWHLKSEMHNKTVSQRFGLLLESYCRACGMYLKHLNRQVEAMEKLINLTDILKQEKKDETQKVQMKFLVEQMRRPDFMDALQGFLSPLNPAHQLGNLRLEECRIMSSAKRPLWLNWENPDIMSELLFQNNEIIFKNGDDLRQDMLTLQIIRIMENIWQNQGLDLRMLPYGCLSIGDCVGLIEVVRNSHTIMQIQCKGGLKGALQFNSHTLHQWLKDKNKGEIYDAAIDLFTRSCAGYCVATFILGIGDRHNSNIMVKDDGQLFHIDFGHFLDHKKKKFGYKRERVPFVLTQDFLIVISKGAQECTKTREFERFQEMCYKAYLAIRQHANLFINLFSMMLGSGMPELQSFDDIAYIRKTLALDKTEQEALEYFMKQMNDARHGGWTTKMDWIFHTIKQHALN
H1047R PIK3CA enzyme, sequence (P27986 whole entry partner): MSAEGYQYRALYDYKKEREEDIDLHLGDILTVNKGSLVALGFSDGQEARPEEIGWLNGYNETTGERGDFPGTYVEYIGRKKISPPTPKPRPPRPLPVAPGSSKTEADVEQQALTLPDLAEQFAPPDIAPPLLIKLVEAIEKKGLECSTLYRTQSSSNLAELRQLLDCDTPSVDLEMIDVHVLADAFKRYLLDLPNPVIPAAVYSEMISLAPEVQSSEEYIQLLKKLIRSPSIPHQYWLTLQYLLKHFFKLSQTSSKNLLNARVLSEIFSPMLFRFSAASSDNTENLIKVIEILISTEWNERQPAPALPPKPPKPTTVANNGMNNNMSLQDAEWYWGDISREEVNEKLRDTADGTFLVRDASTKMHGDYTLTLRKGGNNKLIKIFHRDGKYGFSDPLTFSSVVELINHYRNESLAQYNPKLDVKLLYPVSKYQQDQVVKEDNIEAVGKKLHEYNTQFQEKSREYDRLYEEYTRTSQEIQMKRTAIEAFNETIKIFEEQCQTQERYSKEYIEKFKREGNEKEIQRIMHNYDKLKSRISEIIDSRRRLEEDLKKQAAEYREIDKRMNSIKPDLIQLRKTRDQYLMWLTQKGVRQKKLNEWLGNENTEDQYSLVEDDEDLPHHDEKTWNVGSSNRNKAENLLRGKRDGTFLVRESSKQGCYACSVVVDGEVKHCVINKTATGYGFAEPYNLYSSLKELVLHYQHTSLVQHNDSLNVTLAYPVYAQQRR
`O=C(Nc1cccc2c1C(c1cc(F)ccc1Cl)NC2=O)c1cc(F)c(F)c(C(F)(F)F)c1` (stereo not drawn) [Compound I-580] came in with an IC50 of no more than 100 nM.

Consider `O=C1NC(c2cc(F)ccc2Cl)c2c(NC(=O)c3noc4c3CCCC4)cccc21` (stereo not drawn) [Compound I-2238], for which the IC50 was 1000 to 10000 nM.

For the molecule `CS(=O)(=O)c1cc(-c2ccc3ncnn3c2)cc2c1C(c1cc(F)ccc1Cl)NC2=O` (stereo not drawn) [Compound I-1941], the IC50 is 10000 to 100000 nM.

Take `CC(=O)NCCOc1cc(NC(=O)c2cc(F)cc(C(F)(F)F)c2)c2c(c1)C(=O)NC2c1cc(F)ccc1Cl` (racemic) [Compound I-1322]: the IC50 fell in the range of 100 to 500 nM.

Take `O=C1NCc2c(NC(=O)c3csc4c3CCCC4)cccc21` [Compound I-404]: the IC50 lay within 10000 to 100000 nM.

Regarding `N#Cc1ccc2c(c1)CCN2C(=O)Nc1cccc2c1C(c1cc(F)ccc1Cl)NC2=O` (stereo not drawn) [Compound I-2426], the IC50 was 10000 to 100000 nM.

Regarding `O=C1N[C@H](c2cc(F)ccc2Cl)c2c(NC(=O)N3C[C@](O)(CO)c4ccccc43)cccc21` [Compound I-2168], the IC50 lay within 10000 to 100000 nM.

The molecule `O=C(CCc1ccccc1)Nc1cc(-c2ccc3ncnn3c2)cc2c1C(c1cc(F)ccc1Cl)NC2=O` (stereo not drawn) [Compound I-1628] displayed an IC50 of 1000 to 10000 nM.

`O=C(Nc1cc(-c2ccc3ncnn3n2)cc2c1[C@H](c1cc(F)ccc1Cl)NC2=O)c1cc(F)cc(C(F)(F)F)c1` [Compound I-1650] showed an IC50 of no more than 100 nM.

On to `O=C(Nc1cc(Br)cc2c1C(c1cc(F)ccc1Cl)NC2=O)c1cncc(F)c1` (stereo not drawn) [Compound I-958], for which the IC50 is 10000 to 100000 nM.

`CN1CCCC(C(=O)Nc2cc(-c3ccc4ncnn4c3)cc3c2C(c2cc(F)ccc2Cl)NC3=O)C1` (stereo not drawn) [Compound I-1792] had an IC50 of 1000 to 10000 nM.

`Cn1cc(-c2cc(NC(=O)c3cc(F)cc(C(F)(F)F)c3)c3c(c2)C(=O)N[C@@H]3c2cc(F)ccc2Cl)ccc1=O` (single isomer, unassigned) [Compound I-701] came in with an IC50 of 500 to 1000 nM.

`CC(C)(CN)n1cc(-c2cc(NC(=O)N3C[C@](O)(C(F)(F)F)c4cc(F)ccc43)c3c(c2)C(=O)N[C@@H]3c2cc(F)ccc2Cl)cn1` (single isomer, unassigned) [Compound I-2650] came in with an IC50 of 500 to 1000 nM.

Molecule `N#CCn1nc(Nc2cc(-c3ccc4ncnn4c3)cc3c2C(c2cc(F)ccc2Cl)NC3=O)c2ccccc21` (stereo not drawn) [Compound I-1808] came in with an IC50 of 1000 to 10000 nM.

`C[C@H](C#N)n1cc(-c2cc(NC(=O)c3cc(F)cc(C(F)(F)F)c3)c3c(c2)C(=O)N[C@@H]3c2cc(F)ccc2Cl)cn1` (single isomer, unassigned) [Compound I-1915]: the IC50 is 1000 to 10000 nM.

Take `O=C(Nc1cc(-n2ccnn2)cc2c1C(c1cc(F)ccc1Cl)NC2=O)c1cc(F)cc(C(F)(F)F)c1` (stereo not drawn) [Compound I-2148]: the half-inhibitory concentration (IC50) was no more than 100 nM.

Regarding `O=C(Nc1cc(OCC2CC2)cc2c1C(c1cc(F)ccc1Cl)NC2=O)c1cc(F)cc(C(F)(F)F)c1` (stereo not drawn) [Compound I-2134], the IC50 is 100 to 500 nM.

With `O=C1NC(c2cc(F)ccc2Cl)c2c(NC(=O)C3CC4(C3)CC4(F)F)cc(Br)cc21` (stereo not drawn) [Compound I-1634], the IC50 lay within 10000 to 100000 nM.

In turn, `CC([C@H]1C[C@@H](O)CN1C(=O)Nc1cccc2c1C(c1cc(F)ccc1Cl)NC2=O)C(F)(F)F` (single isomer, unassigned) [Compound I-2287] returned an IC50 of 10000 to 100000 nM.

The molecule `O=C(Nc1ccccc1Cl)Nc1ccnc2c1C(c1ccccc1Cl)NC2=O` (stereo not drawn) [Compound I-296] showed an IC50 of 1000 to 10000 nM.

Take `O=C1NC(c2cc(F)ccc2Cl)c2c(NC(=O)c3cc(F)cc4cn[nH]c34)cccc21` (stereo not drawn) [Compound I-594]: the IC50 lay in the range of 500 to 1000 nM.

Turning to `Cc1ncc(-c2cc(NC(=O)c3cc(F)cc(C(F)(F)F)c3)c3c(n2)C(=O)N[C@H]3c2cc(F)ccc2Cl)cn1` [Compound I-653], the IC50 was no more than 100 nM.

Consider `O=C1NC(c2cc(Cl)ccc2Cl)c2c(NC(=O)c3nsc4ccccc34)cccc21` (stereo not drawn) [Compound I-157], for which the concentration for half-maximal inhibition (IC50) was no more than 100 nM.

In the case of `CC(C)(O)C#Cc1cc(NC(=O)c2cc(F)cc(C(F)(F)F)c2)c2c(c1)C(=O)NC2c1cc(F)ccc1Cl` (stereo not drawn) [Compound I-1191], the IC50 was no more than 100 nM.

In the case of `O=C(Nc1cc(-c2cnc(C3CC3)nc2)cc2c1C(c1cc(F)ccc1Cl)NC2=O)c1cc(F)cc(C(F)(F)F)c1` (stereo not drawn) [Compound I-822], the IC50 is no more than 100 nM.

With `CS(=O)(=O)c1ccccc1-c1cc(NC(=O)c2cc(F)cc(C(F)(F)F)c2)c2c(c1)C(=O)NC2c1cc(F)ccc1Cl` (stereo not drawn) [Compound I-1195], the IC50 is no more than 100 nM.

Take `O=C1NC(c2cc(F)ccc2Cl)c2c(NC(=O)N3CC4C5CCC(C5)C43)cccc21` (stereo not drawn) [Compound I-2429]: the IC50 fell in the range of 10000 to 100000 nM.

Regarding `O=C(Nc1ccnc2c1C(c1ccccc1Cl)NC2=O)c1cc(F)c(F)c(Cl)c1` (stereo not drawn) [Compound I-550], the IC50 lay within 500 to 1000 nM.

Turning to `N#CC1(COc2cc(NC(=O)N3C[C@H](O)c4cc(F)ccc43)c3c(c2)C(=O)N[C@H]3c2cc(F)ccc2Cl)CC1` (single isomer, unassigned) [Compound I-2553], the IC50 is 100 to 500 nM.

`O=C(Nc1cc(CN2CCC(F)(F)C2)cc2c1C(c1cc(F)ccc1Cl)NC2=O)c1cc(F)cc(C(F)(F)F)c1` (stereo not drawn) [Compound I-353] had an IC50 of no more than 100 nM.

As to `Cn1cc(-c2cc(NC(=O)c3cc(F)cc(Cl)c3)c3c(n2)C(=O)NC3c2cc(F)ccc2Cl)cn1` (stereo not drawn) [Compound I-379], the IC50 fell in the range of 100 to 500 nM.

`Cc1ccccc1-n1[nH]c(=O)c2cccc(NC(=O)c3coc4c(F)cc(Cl)cc34)c21` [Compound I-252] yielded an IC50 of 100 to 500 nM.

Molecule `N#Cc1nc2cc(-c3cc(NC(=O)c4cc(F)cc(C(F)(F)F)c4)c4c(c3)C(=O)NC4c3cc(F)ccc3Cl)ccn2n1` (stereo not drawn) [Compound I-1741] registered an IC50 of no more than 100 nM.

In the case of `O=C(Nc1cc(OC[C@H]2CCO2)cc2c1[C@@H](c1cc(F)ccc1Cl)NC2=O)c1cc(F)cc(C(F)(F)F)c1` (single isomer, unassigned) [Compound I-1520], the IC50 lay within 10000 to 100000 nM.

The molecule `N#CC1(COc2cc(NC(=O)c3cc(F)cc(C(F)(F)F)c3)c3c(c2)C(=O)NC3c2cc(F)ccc2Cl)CC1` (stereo not drawn) [Compound I-1113] registered a half-maximal inhibitory concentration (IC50) of no more than 100 nM.

As for `O=C(Nc1cc(-c2cn[nH]c2)nc2c1[C@@H](c1cc(F)ccc1Cl)NC2=O)c1cc(F)cc(Cl)c1` [Compound I-195], the IC50 was 1000 to 10000 nM.

The molecule `COc1c(Cl)cc(F)cc1C(=O)Nc1cc(Br)cc2c1C(c1cc(F)ccc1Cl)NC2=O` (stereo not drawn) [Compound I-834] gave an IC50 of 1000 to 10000 nM.

`O=C(Nc1cccc2c1[C@H]([C@@H]1CCCCC1=O)NC2=O)c1cc(F)cc(C(F)(F)F)c1` (racemic) [Compound I-2036] showed an IC50 of 10000 to 100000 nM.

`Cc1ccccc1[C@H]1NC(=O)c2cc(N)cc(NC(=O)c3cc(F)cc(C(F)(F)F)c3)c21` [Compound I-65] gave an IC50 of 1000 to 10000 nM.

As for `N#Cc1cccc([S+]([O-])Cc2cc(NC(=O)c3cc(F)cc(C(F)(F)F)c3)c3c(c2)C(=O)NC3c2cc(F)ccc2Cl)c1` (stereo not drawn) [Compound I-1487], the 50% inhibitory concentration (IC50) is no more than 100 nM.

The molecule `Cc1ccccc1[C@H]1NC(=O)c2cc(N)cc(NC(=O)c3nsc4ccccc34)c21` [Compound I-91] displayed an IC50 of 500 to 1000 nM.

In turn, `N#Cc1cn(-c2cc(NC(=O)c3cc(F)cc(C(F)(F)F)c3)c3c(c2)C(=O)NC3c2cc(F)ccc2Cl)cn1` (stereo not drawn) [Compound I-1127] yielded an IC50 of no more than 100 nM.

Regarding `O=C1NC(c2cc(F)ccc2Cl)c2c(NC(=O)C3COC4CCCCC43)cccc21` (stereo not drawn) [Compound I-2302], the IC50 fell in the range of 10000 to 100000 nM.

In the case of `C[S@](=O)(Cc1cc(NC(=O)c2cc(F)cc(C(F)(F)F)c2)c2c(c1)C(=O)N[C@@H]2c1cc(F)ccc1Cl)=NC#N` (single isomer, unassigned) [Compound I-1563], the IC50 is no more than 100 nM.

The molecule `O=C1NC(c2cc(F)ccc2Cl)c2c(NC(=O)N3CCC4(C3)CC4(F)F)cc(-c3ccc4ncnn4c3)cc21` (stereo not drawn) [Compound I-1722] displayed a concentration for half-maximal inhibition (IC50) of 1000 to 10000 nM.

In the case of `NC1CN(c2cc(NC(=O)c3cc(F)cc(C(F)(F)F)c3)c3c(n2)C(=O)NC3c2cc(F)ccc2Cl)C1` (stereo not drawn) [Compound I-417], the half-inhibitory concentration (IC50) fell in the range of 100 to 500 nM.

As to `CN(C)c1cc(NC(=O)N2C[C@](O)(C(F)(F)F)c3cc(F)ccc32)c2c(n1)C(=O)N[C@@H]2c1cc(F)ccc1Cl` (single isomer, unassigned) [Compound I-2692], the IC50 fell in the range of 10000 to 100000 nM.

For `O=C(Nc1cc(C2CN(C3COC3)C2)cc2c1C(c1cc(F)ccc1Cl)NC2=O)c1cc(F)cc(C(F)(F)F)c1` (stereo not drawn) [Compound I-1280], the IC50 is no more than 100 nM.

`O=C(Nc1cc(Cn2cccn2)cc2c1[C@@H](c1cc(F)ccc1Cl)NC2=O)c1cc(F)cc(C(F)(F)F)c1` (stereo in doubt) [Compound I-1614] displayed an IC50 of 100 to 500 nM.

`O=C(Nc1cc(Nc2ccccc2)cc2c1C(c1cc(F)ccc1Cl)NC2=O)c1cc(F)cc(C(F)(F)F)c1` (stereo not drawn) [Compound I-1213]: the IC50 is no more than 100 nM.

Consider `O=C(Nc1cc(Br)cc2c1[C@H](c1cc(F)c(F)cc1Cl)NC2=O)c1cc(F)cc(C(F)(F)F)c1` [Compound I-677], for which the IC50 is no more than 100 nM.

Take `O=C(Nc1cc(Br)cc2c1C(c1cc(F)ccc1Cl)NC2=O)c1cc(F)cc(CC2CCC2)c1` (stereo not drawn) [Compound I-1350]: the IC50 was 1000 to 10000 nM.

As to `O=C1NC(c2cc(F)ccc2Cl)c2c(NC(=O)N3CCC(F)C3)cc(Br)cc21` (stereo not drawn) [Compound I-542], the IC50 was in the range of 10000 to 100000 nM.

In turn, `O=C(Nc1cc(NC(=O)C2CNC2)cc2c1C(c1cc(F)ccc1Cl)NC2=O)c1cc(F)cc(C(F)(F)F)c1` (stereo not drawn) [Compound I-389] came in with an IC50 of 100 to 500 nM.

For the molecule `O=C(Nc1cc(Cc2ccc3c(c2)CCNC3=O)cc2c1C(c1cc(F)ccc1Cl)NC2=O)c1cc(F)cc(C(F)(F)F)c1` (stereo not drawn) [Compound I-1475], the IC50 is no more than 100 nM.

For the molecule `CC(C)(C)N[C@@H]1NC(=O)c2cccc(NC(=O)c3cc(F)cc(C(F)(F)F)c3)c21` (single isomer, unassigned) [Compound I-2247], the IC50 was 10000 to 100000 nM.

In turn, `N#Cc1cnn(-c2cc(NC(=O)N3CC(O)c4cc(F)ccc43)c3c(c2)C(=O)NC3c2cc(F)ccc2Cl)c1` (stereo not drawn) [Compound I-2404] came in with an IC50 of 100 to 500 nM.

Regarding `O=C(Nc1cc(Br)cc2c1C(c1cc(F)ccc1Cl)NC2=O)c1ccc(F)c(OC(F)(F)F)c1` (stereo not drawn) [Compound I-516], the half-maximal inhibitory concentration (IC50) lay in the range of 100 to 500 nM.

In the case of `O=C(Nc1cc(CS(=O)(=O)N2CCC2)cc2c1C(c1cc(F)ccc1Cl)NC2=O)c1cc(F)cc(C(F)(F)F)c1` (stereo not drawn) [Compound I-1399], the IC50 was no more than 100 nM.

In the case of `Cc1ccccc1C1NC(=O)c2nccc(NC(=O)N3CCc4ccncc43)c21` (stereo not drawn) [Compound I-251], the 50% inhibitory concentration (IC50) lay in the range of 10000 to 100000 nM.

The record behind these values is patent US12581252B2, “Substituted pyrrolo[3,4-b]pyridines as PI3K-α inhibitors” (Relay Therapeutics, Inc., priority 2020, dated 2026).
